In patent US7476729B2, “Dbait and uses thereof” (Institut Curie, priority 2003, dated 2009):
Entries after “also recorded” stand apart in the source; their conditions may differ.

Assays:
[1] = tested on: GMA32 cells; test: Clonogenicity (clonal survival) assay in GMA32 cells with irradiation or mitotic inhibitors; format: cell-based, Chinese hamster
Description: (§1) The GMA32 Chinese hamster fibroblast cells permissive of DNA breaks were maintained in MEM medium (Gibco) supplemented with 1 mM sodium pyruvate, 2 mM glutamine, 1×MEM non essential amino acids, 1× penicillin/streptomycin and 10% horse serum. Typically, 2×10^5 to 4×10^5 cells were seeded in medium without antibiotics, in 5 cm diameter Petri dishes 24 hours before the transfection of different Dbait molecules (4.5 μg) with lipofectamine 2000 (LifeTechnologies) as transfection agent (in a 1:3 ratio), according to the manufacturer's instructions. At the end of the transfection the cells were either irradiated (4 Gy) or treated with mitotic inhibitors: nocodazole (200 nM), navelbine (100 nM) or taxol (200 nM).
(§2) About 16 hour later the drug was removed and the cells were allowed to recover. Cell irradiation was performed with γ-rays from a ^137Cs source. After a 24 hours recovery, the cells were collected and used either for FACS, western blot analyses or to determine the clonogenicity (survival) and the effect of each treatment.
The effect of radiosensitization and chemosensitization of Dbait molecules in GMA32 cells was evaluated by clonogenicity (clonal survival) assay. For the clonogenicity assay, serial dilutions were made after counting the cells to seed 5 cm Petri dishes with different amounts of cells. The number of cells range from 100-200 (control cells) to 3000 (transfected or/and treated cells). Ten days after, the cells (forming clone) were fixed with 4% paraformaldehyde (20 minutes), then colored with methylene blue (15 minutes), and the number of clone in each plate (in triplicates) was scored.
These drugs are known as potent inhibitors of either polymerization or depolymerization of microtubules. Dbait32 (SEQ ID NO: 1) and Dait32H (SEQ ID NO: 1) were able to enhance to cytotoxic activity of these mitotic inhibitors.

[2] = tested on: γ-H2AX foci in GMA32 cells; test: Immunodetection of γ-H2AX DSB foci in GMA32 cells; format: cell-based, Chinese hamster; conditions: GMA32, Dbait with lipofectamine, no irradiation
Description: Under the same conditions, the immunodetection of DSB foci of γ-H2AX phosphorylated on serine 139 by γ-H2AX labeling (bright dots or patches in nuclei) was performed in the untreated GMA32 cells, the cells transfected alone, or transfected with different Dbait molecules by lipofectamine. The counterstaining of cell membranes and nuclei were achieved by FITC-DiOC6 and DAPI. Similar effects of Dbait molecules were observed (FIG. 3.2). […] This provides visual evidence that these Dbait molecules can be used for trapping proteins involved in DSB repair via NHEJ pathway.
For immunodetection, the cells were grown on coverslip in 5 cm diameter Petri dishes 24 hours before the transfection with different Dbait molecules. One day after the transfection, FITC-DiOC6 (Molecular probes) was added in the medium 5 minutes at 37° C. (to counterstain the membranes). After 3 washing cycles, the cells were fixated with 4% PFA for 20 minutes.
After additional washing, γ-H2AX phosphorylated on serine 139 (γ-H2AX) was detected with. rabbit anti-γ-H2AX antibody (4411-PC, Trevigen) diluted 1/100 in 1×PBS, 1% BSA. Cells were washed three times with 1×PBS, 0.5%, TritonX-100, then incubated for 1 hour at room temperature with goat anti-rabbit antibodies Alexa 594 (Molecular Probes) diluted 1/100 in 1×PBS, 1% BSA. Cells were visualized by epifluorescence microscopy.

[3] = tested on: GMA32 cells; test: FACS analysis of sub-G1 cells (cell death) in GMA32 cells; format: cell-based, Chinese hamster; conditions: GMA32, 4.5 μg Dbait with lipofectamine, no irradiation or mitotic inhibitor
Description: as §1, §2
The M1 phase represents the percentage of cells in sub-G1 stage indicative of cell death.
The experiments were performed with a FACS calibur flow cytometer (Becton Dickinson). Cells were collected, suspended in 1 ml of cold GM buffer (6.5 mM glucose, 137 mM NaCl, 5.4 mM KCl, 2 mM Na2HPO4, 1 mM KHPO4, 0.5 mM EDTA), and stored at 4° C. for at least 2 hours after addition of 3 ml of cold 100% ethanol.
At that stage, cells were eventually washed with 1×PBS, then stained for 30 minutes at room temperature in PI solution (50 μg/ml propidium iodide, 25 μg/ml RNase A in 1×PBS buffer). 10,000 events were analyzed with Cellquest software, and cell aggregates were gated out. The percentage of cells with a sub-G1 content of DNA was scored.

[4] = target: T1, Ku complex (Homo sapiens, UniProt P12956+P13010); test: Band-shift assay with Hep2 nuclear protein extracts; format: binding; conditions: 10 nM 32P radio-labelled Dbait, 0-320 ng/μL Hep2 nuclear proteins, 30° C., 10 minutes
T1 construct: in the presence of nuclear protein extracts from Hep2 cells according to standard protocol; endogenous in cells; host or cells: Hep2 cells (nuclear protein extract)
Description: As the first step to dissect the mechanism of action of Dbait molecules, a series of band-shift assays were carried out with different ^32P radio-labelled Dbait molecules in the presence of nuclear protein extracts from Hep2 cells according to standard protocol. Typically, 10 nM ^32P radio-labelled Dbait molecules were incubated in the presence of various concentrations of nuclear proteins (0, 10, 20, 40, 80, 160, and 320 ng/μL) at 30° C. for 10 minutes in TBE buffer. Then the samples were loaded on a 5% acrylamide native gel. The electrophoresis was run at 95V for 2 hours at 4° C. The gel was dried and scanned by phosphorimager (Molecular Dynamics).
For 32-bp Dbait molecules, the intensity of the retarded band 1 increases and then decreases as the concentration of protein increases, while the intensity of the retarded band 2 increases as a function of the concentration of nuclear protein extracts.
It is likely that band 1 has one Ku70/80 complex bound to the 16 to 32-bp Dbait, whereas the band 2 has two Ku70/80 complexes bound to the 32-bp Dbait molecules. Control experiments performed with purified Ku proteins confirmed this interpretation.

[5] = tested on: p53 serine 15 phosphorylation in GMA32 cells; test: Western blot of p53 serine 15 phosphorylation in GMA32 cells; format: cell-based, Chinese hamster; conditions: GMA32, Dbait with lipofectamine, no irradiation or mitotic inhibitor
Description: Further experiment was carried out in order to look for evidence of DNA damage signaling. The protein p53 is a well known major protein in mediating DNA damage signaling and in coordinating appropriate responses (DNA repair, apoptosis, etc.) by changing its phosphorylation status. In particular, the phosphorylation of serine 15 residue is involved in the interaction with MDM2 protein which acts as a feed back control Thus, the phosphorylation status of the serine 15 of p53 was assessed by Western blot.
For Western blot analysis, cells were lysed in Laemmli buffer. Equal amounts of lysates were resolved in 12% polyacrylamide gels. Proteins were transferred to nitrocellulose membranes, which were blocked with 5% nonfat milk (1 hour) before overnight incubation with anti-p53Ser15 antibody (9284, Cell Signaling) diluted 500 folds in TBST buffer (10 mM Tris-HCl pH7.5, 150 mM NaCl, 0.1% Tween 20) containing 5% nonfat milk. Blots were then incubated with horseradish peroxidase-conjugated goat anti-rabbit IgG secondary antibodies (P0448, Dako) diluted 1/5000 in TBST. Protein-antibody complexes were detected by enhanced chemiluminescence (RPN2106 ECL, Amersham).

[6] = tested on: γ-H2AX foci in Hela cells; test: Immunodetection of DSB sites (γ-H2AX foci) in Hela cells after irradiation; format: cell-based, human; conditions: 2 μg Dbait, two hours after 2 Gy irradiation
Description: Transfection and irradiation protocoles were similar to those described above. For immunodetection, the cells were grown on surface coverslip in 5 cm diameter Petri dishes, transfected with 2 μg Dbait32H-FITC (SEQ ID NO: 1) molecules labeled with FITC with Superfect (Qiagene) according to the manufacturer's instruction. Four hours after the beginning of the transfection, cells were irradiated (2 Gy), then rest for 2 hours in the medium at 37° C. After 3 washing cycles, the cells were fixated with 2% PFA for 10 minutes. After one additional washings, the presence of γ-H2AX was detected with rabbit anti-γ-H2AX antibody (4411-PC, Trevigen) diluted 1/100 in 1×PBS, 1% BSA. Cells were washed three times with 1×PBS, 0.5% TritonX-100, then incubated for 1 hour at room temperature with rhodamine-conjugated goat anti-rabbit antibodies diluted 1/100 in 1×PBS, 1% BSA. Cells were visualized by epifluorescence microscopy.
Left panel: fluorescence of Dbait32H-FITC (SEQ ID NO: 1) (bright dots and patches) and DBS foci detected by immunofluorescence of γ-H2AX antibody in nuclei; Right panel: the same image of nuclei with DSB foci detected by immunofluorescence of γ-H2AX antibody and DAPI counterstaining. The arrows at the lower left corner show the absence of Dbait32H-FITC (SEQ ID NO: 1) and γ-H2AX signal in nucleus. […]

[7] = tested on: tumor tissues of K-Ras^V12G×Apc^1638N transgenic mouse; test: Fluorescence microscopy of digestive tumor tissue of a treated transgenic mouse; format: in vivo; conditions: oral, with 5FU+CPT11 for three days, sacrificed two hours after the last treatment
Description: Tumor samples prepared from animals treated with Dbait molecules tagged by fluorescein (Dbait32H-FITC) (SEQ ID NO: 1) and 5FU+CPT11 were analysed using immunofluorescence staining methods. γ-H2AX labeled foci were costained with fluorescent Dbait molecules, in reminiscence of the in vitro finding (cf. example 3.3 and 4). […] Then the tumor tissues were sampled and frozen at −80° C. For the analysis, 5 μm histological samples were made from the frozen tumor tissues by cryostat. DNA repair foci were detected by immunofluorescence with polyclonal rabbit anti-γ-H2AX antibody (Trevigen) diluted 1/500 in PBS, then with goat anti-rabbit antibody tagged by cyanine 3 (Jackson) diluted 1/200 in PBS. The samples were also counterstained by DAPI Samples were visualized by epifluorescence microscopy. […] Similar pattern was found for γ-H2AX sites (FIG. 5.3, panel B, right). The co-localized Dbait32H-FITC (SEQ ID NO: 1) and γ-H2AX signals were almost observed.

T1 sequence (P12956 whole entry): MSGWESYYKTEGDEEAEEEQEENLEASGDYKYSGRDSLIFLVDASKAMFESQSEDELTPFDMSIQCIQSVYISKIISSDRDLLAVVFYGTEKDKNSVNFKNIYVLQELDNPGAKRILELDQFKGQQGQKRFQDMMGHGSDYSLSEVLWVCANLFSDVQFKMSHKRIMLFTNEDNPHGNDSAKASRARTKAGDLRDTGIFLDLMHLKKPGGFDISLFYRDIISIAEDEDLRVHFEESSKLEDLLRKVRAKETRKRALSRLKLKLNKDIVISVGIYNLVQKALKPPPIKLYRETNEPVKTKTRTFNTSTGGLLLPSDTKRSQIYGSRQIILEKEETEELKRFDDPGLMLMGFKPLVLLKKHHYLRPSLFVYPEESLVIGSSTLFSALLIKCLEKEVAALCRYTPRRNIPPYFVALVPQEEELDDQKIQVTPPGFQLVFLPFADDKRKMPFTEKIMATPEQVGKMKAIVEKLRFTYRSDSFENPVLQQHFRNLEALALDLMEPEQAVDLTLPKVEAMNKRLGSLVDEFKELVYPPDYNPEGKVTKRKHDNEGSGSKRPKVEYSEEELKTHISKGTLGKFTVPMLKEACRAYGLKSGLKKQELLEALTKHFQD
T1 sequence (P13010 whole entry): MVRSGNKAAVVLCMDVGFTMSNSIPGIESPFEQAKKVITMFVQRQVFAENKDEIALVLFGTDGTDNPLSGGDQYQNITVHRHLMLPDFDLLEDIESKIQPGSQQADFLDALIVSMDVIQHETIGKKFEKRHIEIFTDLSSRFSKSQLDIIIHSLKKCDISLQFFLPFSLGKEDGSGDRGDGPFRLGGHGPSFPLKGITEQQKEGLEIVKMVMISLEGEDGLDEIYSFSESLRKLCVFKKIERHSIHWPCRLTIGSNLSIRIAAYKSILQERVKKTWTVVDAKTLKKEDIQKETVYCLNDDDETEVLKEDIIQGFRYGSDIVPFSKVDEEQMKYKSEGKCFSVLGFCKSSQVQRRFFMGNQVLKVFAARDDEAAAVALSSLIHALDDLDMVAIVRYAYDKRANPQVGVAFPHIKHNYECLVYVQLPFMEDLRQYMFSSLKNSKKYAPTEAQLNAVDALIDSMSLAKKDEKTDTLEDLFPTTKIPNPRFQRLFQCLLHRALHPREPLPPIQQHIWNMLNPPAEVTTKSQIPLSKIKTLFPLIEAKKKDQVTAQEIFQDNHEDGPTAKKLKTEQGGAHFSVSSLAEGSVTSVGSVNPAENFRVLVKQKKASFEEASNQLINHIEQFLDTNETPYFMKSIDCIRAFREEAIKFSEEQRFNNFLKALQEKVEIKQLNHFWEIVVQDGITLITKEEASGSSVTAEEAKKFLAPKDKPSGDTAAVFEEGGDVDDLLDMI

Row | Substance | chemosensitization (clonal survival) ([1]; GMA32, 200 nM nocodazole, 100 nM navelbine (vinorelbine) or 200 nM taxol (paclitaxel)) | radiosensitization (clonal survival) ([1]; GMA32, 4 Gy irradiation) | γ-H2AX DSB foci (cell response) [2] | cell death (cells in sub-G1 stage) [3] | retarded bands in band-shift assay [4] | phosphorylation of p53 serine 15 [5] | persistence of DSB sites (γ-H2AX foci) [6] | distribution in tumor tissues [7]
1 | Dbait32: 32-bp linear double-stranded Dbait molecule (SEQ ID NO: 1) (ACGCACGGGTGTTGGGTCGTTTGTTCGGATCT; DNA, backbone not given here; linear DNA duplex, phosphorothioates at blunt ends, exact count not readable, further chemistry not fully specified) | chemosensitization was also observed | radiosensitization to 4 Gy irradiation was observed | effectively trigger similar cell response as if DNA damages were occurred in nuclei | Significant cell death | two retarded band | highly phosphorylated |  | 
2 | Dbait32H-FITC: Dbait32H labelled via a T tagged with fluorescein (DNA ACGCACGGGTGTTGGGTCGTTTGTTCGGATCT; DNA, backbone not given here; fluorescein on a T, hairpin, hexaethyleneglycol loop, phosphorothioate blunt end, further chemistry not fully specified) |  |  |  |  |  |  | DSB sites persisted | heterogeneously disseminated in tumor tissues; also recorded: preferential nucleus localization
